Three molecules from PubChem BioAssay AID1259407 (Chemical Carcinogenesis Research Information System (CCRIS), 2018) can be followed below.

Calls of active or inactive are those of the source. How the calls were made is not given here.

This data set has as its system CCRIS mutagenicity, Ames/micronucleus/aberration tests. The data set is described as follows: CCRIS mutagenicity studies.
Setting [1] is: Test System: AMES SALMONELLA TYPHIMURIUM, Strain/Indicator: TA97, Metabolic Activation: HAMSTER, LIVER, S-9, AROCLOR 1254 (10%), Method: PREINCUBATION
Setting [2] is: Test System: AMES SALMONELLA TYPHIMURIUM, Strain/Indicator: TA97, Metabolic Activation: NONE, Method: PREINCUBATION
[3] abbreviates: Test System: AMES SALMONELLA TYPHIMURIUM, Strain/Indicator: TA97, Metabolic Activation: RAT, LIVER, S-9, AROCLOR 1254 (10%), Method: PREINCUBATION
Setting [4] is: Test System: AMES SALMONELLA TYPHIMURIUM, Strain/Indicator: TA98, Metabolic Activation: HAMSTER, LIVER, S-9, AROCLOR 1254 (10%), Method: PREINCUBATION
Setting [5] is: Test System: AMES SALMONELLA TYPHIMURIUM, Strain/Indicator: TA98, Metabolic Activation: NONE, Method: PREINCUBATION
[6] abbreviates: Test System: AMES SALMONELLA TYPHIMURIUM, Strain/Indicator: TA98, Metabolic Activation: RAT, LIVER, S-9, AROCLOR 1254 (10%), Method: PREINCUBATION
Setting [7] is: Test System: AMES SALMONELLA TYPHIMURIUM, Strain/Indicator: TA100, Metabolic Activation: NONE, Method: PREINCUBATION
Setting [8] is: Test System: AMES SALMONELLA TYPHIMURIUM, Strain/Indicator: TA100, Metabolic Activation: RAT, LIVER, S-9, AROCLOR 1254 (10%), Method: PREINCUBATION
Setting [9] is: Test System: AMES SALMONELLA TYPHIMURIUM, Strain/Indicator: TA1537, Metabolic Activation: NONE, Method: PREINCUBATION

Turning to `C1CCC(NC2CCCCC2)CC1`, the mutagenic call is “inactive; negative” under setting [1]; “inactive; negative” under setting [2]; “inactive; negative” under setting [3]; “inactive; negative” under setting [4]; “inactive; negative” under setting [5]; “inactive; negative” (Test System: AMES SALMONELLA TYPHIMURIUM, Strain/Indicator: TA98, Metabolic Activation: RAT LIVER S-9, PHENOBARBITAL AND BETA-NAPHTHOFLAVONE, Method: PREINCUBATION). Also, the mutagenic call is, setting by setting: under setting [6], “inactive; negative”; under setting [7], “inactive; negative”; (Test System: AMES SALMONELLA TYPHIMURIUM, Strain/Indicator: TA100, Metabolic Activation: RAT LIVER S-9, PHENOBARBITAL AND BETA-NAPHTHOFLAVONE, Method: PREINCUBATION) “inactive; negative”; under setting [8], “inactive; negative”; (Test System: AMES SALMONELLA TYPHIMURIUM, Strain/Indicator: TA1535, Metabolic Activation: RAT LIVER S-9, PHENOBARBITAL AND BETA-NAPHTHOFLAVONE, Method: PREINCUBATION) “inactive; negative”; (Test System: AMES SALMONELLA TYPHIMURIUM, Strain/Indicator: TA1537, Metabolic Activation: HAMSTER, LIVER, S-9, AROCLOR 1254 (10%), Method: PREINCUBATION) “inactive; negative”. Further, the mutagenic call was “inactive; negative” under setting [9]; “inactive; negative” (Test System: AMES SALMONELLA TYPHIMURIUM, Strain/Indicator: TA1537, Metabolic Activation: RAT LIVER S-9, PHENOBARBITAL AND BETA-NAPHTHOFLAVONE, Method: PREINCUBATION); “inactive; negative” (Test System: AMES SALMONELLA TYPHIMURIUM, Strain/Indicator: TA1537, Metabolic Activation: RAT, LIVER, S-9, AROCLOR 1254 (10%), Method: PREINCUBATION); “inactive; negative” (Test System: E.COLI, Strain/Indicator: WP2UVRA/PKM101, Metabolic Activation: NONE, Method: PREINCUBATION); “inactive; negative” (Test System: E.COLI, Strain/Indicator: WP2UVRA/PKM101, Metabolic Activation: RAT LIVER S-9, PHENOBARBITAL AND BETA-NAPHTHOFLAVONE, Method: PREINCUBATION).

For `O=C1c2ccccc2C(=O)c2c(O)cc(O)cc21`, the mutagenic call under setting [5] is “inactive; negative”; the mutagenic call (Test System: AMES SALMONELLA TYPHIMURIUM, Strain/Indicator: TA98, Metabolic Activation: RAT, LIVER, S-9, PCB, Method: PREINCUBATION) is “active; positive”; the mutagenic call under setting [7] is “inactive; negative”; the mutagenic call (Test System: AMES SALMONELLA TYPHIMURIUM, Strain/Indicator: TA100, Metabolic Activation: RAT, LIVER, S-9, PCB, Method: PREINCUBATION) was “active; positive”; the mutagenic call under setting [9] is “active; positive”; the mutagenic call (Test System: AMES SALMONELLA TYPHIMURIUM, Strain/Indicator: TA1537, Metabolic Activation: RAT, LIVER, S-9, Method: PREINCUBATION) is “active; positive”. Also, the mutagenic call is, setting by setting: (Test System: CHINESE HAMSTER V-79, Strain/Indicator: V-79/8-AZAGUANINE, Metabolic Activation: NONE, Method: STANDARD PLATE) “active; positive”; (Test System: CHINESE HAMSTER V-79, Strain/Indicator: V-79/8-AZAGUANINE, Metabolic Activation: PRIMARY RAT HEPATOCYTES, Method: STANDARD PLATE) “active; positive”; (Test System: UDS RODENT HEPATOCYTES, Strain/Indicator: THY INCORP (NON-S-PHASE), Metabolic Activation: NONE, Method: AUTORADIOGRAPHY) “active; positive”.

With `CC(=O)NBr`, the mutagenic call runs as follows: under setting [1], “inactive; negative”; (Test System: AMES SALMONELLA TYPHIMURIUM, Strain/Indicator: TA97, Metabolic Activation: HAMSTER, LIVER, S-9, AROCLOR 1254 (30%), Method: PREINCUBATION) “inactive; negative”; under setting [2], “inactive; negative”; under setting [3], “inactive; negative”; (Test System: AMES SALMONELLA TYPHIMURIUM, Strain/Indicator: TA97, Metabolic Activation: RAT, LIVER, S-9, AROCLOR 1254 (30%), Method: PREINCUBATION) “inactive; negative”; under setting [4], “inactive; negative”. In addition, the mutagenic call was “inactive; negative” (Test System: AMES SALMONELLA TYPHIMURIUM, Strain/Indicator: TA98, Metabolic Activation: HAMSTER, LIVER, S-9, AROCLOR 1254 (30%), Method: PREINCUBATION); “inactive; negative” under setting [5]; “inactive; negative” under setting [6]; “inactive; negative” (Test System: AMES SALMONELLA TYPHIMURIUM, Strain/Indicator: TA98, Metabolic Activation: RAT, LIVER, S-9, AROCLOR 1254 (30%), Method: PREINCUBATION); “inactive; negative” (Test System: AMES SALMONELLA TYPHIMURIUM, Strain/Indicator: TA100, Metabolic Activation: HAMSTER, LIVER, S-9, AROCLOR 1254 (10%), Method: PREINCUBATION); “inactive; negative” (Test System: AMES SALMONELLA TYPHIMURIUM, Strain/Indicator: TA100, Metabolic Activation: HAMSTER, LIVER, S-9, AROCLOR 1254 (30%), Method: PREINCUBATION). Moreover, the mutagenic call runs as follows: under setting [7], “inactive; negative”; under setting [8], “inactive; negative”; (Test System: AMES SALMONELLA TYPHIMURIUM, Strain/Indicator: TA100, Metabolic Activation: RAT, LIVER, S-9, AROCLOR 1254 (30%), Method: PREINCUBATION) “inactive; negative”; (Test System: AMES SALMONELLA TYPHIMURIUM, Strain/Indicator: TA1535, Metabolic Activation: HAMSTER, LIVER, S-9, AROCLOR 1254 (10%), Method: PREINCUBATION) “inactive; negative”; (Test System: AMES SALMONELLA TYPHIMURIUM, Strain/Indicator: TA1535, Metabolic Activation: HAMSTER, LIVER, S-9, AROCLOR 1254 (30%), Method: PREINCUBATION) “inactive; negative”; (Test System: AMES SALMONELLA TYPHIMURIUM, Strain/Indicator: TA1535, Metabolic Activation: NONE, Method: PREINCUBATION) “inactive; negative”. Besides, the mutagenic call is, setting by setting: (Test System: AMES SALMONELLA TYPHIMURIUM, Strain/Indicator: TA1535, Metabolic Activation: RAT, LIVER, S-9, AROCLOR 1254 (10%), Method: PREINCUBATION) “inactive; negative”; (Test System: AMES SALMONELLA TYPHIMURIUM, Strain/Indicator: TA1535, Metabolic Activation: RAT, LIVER, S-9, AROCLOR 1254 (30%), Method: PREINCUBATION) “inactive; negative”.
